Measured values from the NIST ThermoML archive (doi:10.1016/j.jct.2007.05.001).
Numbers after ± are expanded uncertainties.

Experiment: refractive index (Na D-line) (dimensionless)
Conditions: 293.1 K; 101.33 kPa; Liquid; Standard Abbe refractometry

| Structure (SMILES) | refractive index |
| --- | --- |
| O=CN1CCOCC1 [N-formylmorpholine] | 1.484 ± 0.0008 |
| Cc1cccc(C)c1 [1,3-dimethylbenzene] | 1.4943 ± 0.0008 |
